From patent US20160367708A1, “COMPOSITIONS AND METHODS OF TREATING CANCER” (THE JOHNS HOPKINS UNIVERSITY, priority 2013, published 2016)

Key:
HeLa cell xenografts = conditions: applicants' earlier work, cited from earlier work; for inhibition of xenograft tumor growth: nude mice, single low-dose IV injection
[1] = tested on: mouse BALB/c CRL2836 cell line or the human HeLa cell line; assay: WST-1 cell proliferation assay, ^32P taken up from the medium versus ^32P held in tubes (electron bombardment only); format: cell-based; conditions: isotope added directly to the medium for 1 day, compared with isotope kept in tubes in the wells; followed up to six days
Procedure: FIG. 1. A cell proliferation assay using WST-1 was performed to assess the relative cell killing ability of ^32Pmonophosphate that is taken up by cells into the DNA versus that which is not taken up by the cells, but subjected only to electron bombardment.
Measurement of In Vitro Cell Killing by ^32P Radioisotope. Two thousand cells of the mouse BALB/c CRL2836 cell line or the human HeLa cell line were growing in complete medium in wells of a 96-well plate and were exposed to either 0 uCi, 3 uCi or 10 uCi of the [^32P]pyrophosphate or the [^32P]monophosphate radioisotopes. One set of triplicate wells contained medium with the designated form of the isotope, while another set of triplicate wells had the isotope contained in small tubes placed in the wells. […] After a 24 hour exposure time, fresh non-radioactive medium was added and WST-1 proliferation assays were done at several subsequent time points.
To assess the relative cell killing ability of [^32P]monophosphate that is taken up by cells into the DNA versus that of is not taken up by the cells, but subjected only to electron bombardment, a cell proliferation assay using WST-1 was undertaken (FIG. 1). […]

[2] = tested on: BALB/c tumor CRL2836 cells; assay: WST-1 cell proliferation assay, [^32P]PO4 versus ^90Y; format: cell-based, mouse
Procedure: (§1) FIG. 2. Inhibition of cell growth by [^32P]PO4 or [^90Y]. The WST-1 proliferation assay was done to determine the level of cell kill by ^32P or by ^90Y. BALB/c tumor CRL2836 cells or HeLa cells were exposed to 0 Ci, 1 μCi, 2.5 μCi, or 5 μCi in complete medium. After 24 hours, the radioactivity was removed and cells were grown in non-radioactive complete medium. WST-1 cell proliferation assays were done at Days 1, 2, 3, 4, and 5 and all assays were done in triplicate. The mean is shown plus/minus the standard deviation. The student's two-sided t-test determined the P value shown.
(§2) Measurement of in vitro cell killing by ^32P and ^90Y. Two thousand cells of the mouse BALB/c CRL2836 cell line or the human HeLa cell line were grown in complete medium in a 96-well plate and at Day 0 were exposed to either 0, 1, 2.5, or 5 μCi of ^90Y radioisotope or the [^32P]PO4 radioisotope in complete medium. After a 24 h incubation, the radioisotope-containing medium was removed and replaced with non-radioactive complete medium (Day 1). […]
(§3) Statistical analysis. The data from the WST-1 cell proliferation are presented as means±standard deviation and the significance was determined using the unpaired Student's t test. […] The significance was determined using the unpaired Student's t test.

HeLa cells [3] = assay: as above; format: cell-based, human
Procedure: as §1, §2, §3

HeLa cells [4] = assay: H2AX immunostain assay of double-strand DNA breaks, ^32P versus ^90Y; format: cell-based, human; conditions: 3 μCi for 24 h, Day 1, 2 or 3
Procedure: FIG. 4. Determination of double-strand DNA breaks in cells caused by exposure to [^32P]PO4 or ^90Y. HeLa cells or mouse BALB/c CRL2836 cells were grown in multiple sections of chamber slides and exposed to 0 μCi or 3 μCi of [^32P]PO4 or ^90Y in complete medium at Day 0. After 24 hours, the radioactivity was removed and cells were grown in non-radioactive complete medium. At Day 1, 2, or 3 the presence of double-strand DNA breaks in the cells was determined by staining for phosphorylated H2-AX histones which indicate double-strand DNA damage.
Assessment of Double-Strand DNA Breaks by ^32P and ^90Y. Ten thousand HeLa cells were seeded in Lab-TekII chamber slides (Thermo Fisher Scientific Inc., Waltham, Mass.). At Day 0 cells were treated with 0 or 3 μCi of ^32P or ^90Y in complete medium. At Day 1, all wells were gently washed and fresh non-radioactive medium was added. At Day 1, Day 2, or Day 3, cells were fixed with 10% formalin at room temperature for 10 min, washed with PBS for two min, and permeabilized with 0.2% Triton X-100 with 10% FBS in PBS for 15 min. After a rinse with PBS, primary mouse anti-human H2AX antibody with 1:1000 dilution (Millipore, Billerica, Mass.) was incubated for 1 h at ambient temperature, and washed twice with PBS for 5 min. […]

[5] = tested on: Syngeneic BALB/c CRL2836 tumors; assay: ^32P-mediated tumor growth inhibition in syngeneic BALB/c mice; format: in vivo, mouse; conditions: for inhibition of established syngeneic tumor growth: single IV injection of 5 μCi ten days after tumor cell injection
Source text: FIG. 5. Inhibition of BALB/c syngeneic tumor growth by [^32P]PO4. Syngeneic BALB/c CRL2836 tumors were established in the rear flanks of BALB/c mice at Day 0. After ten days during which the tumors became well vascularized, mice received an injection of 5 μCi of [^32P]PO4 intra-venously via the tail vein. The tumor volumes are shown as the mean of six tumors plus/minus the standard error of the mean. The student's two-sided t-test determined the P value shown.
Establishment of mouse tumors. Syngeneic BALB/c mouse tumors were established by injecting 2×10^6 BALB/c tumor CRL2836 cells ([…], Manassas, Va.) in a volume of 0.2 mL (50% Matrigel, 50% 1×PBS) subcutaneously in the left rear and right rear flank. All mice were female, 10 weeks of age, and purchased from Charles River Laboratories (Wilmington, Mass.).
^32P-Mediated tumor growth inhibition. After ten days, during which time well-vascularized tumors were established, an injection of 5 μCi of the monophosphate form of ^32P (Perkin-Elmer, Cat. # NEX06000) was injected intravenously via the tail vein in 0.1 mL of 1×HBSS. Six tumors (three animals) were studied in each group. After injection, tumor growth was measured three times per week with a digital caliper and the volume was determined using the formula: volume=½(width)^2×(length).
Statistical analysis. The data from the WST-1 cell proliferation are presented as means±standard deviation and the significance was determined using the unpaired Student's t test. The tumor volumes of the untreated and treated mice are shown as means±SE and no outliers were excluded for any reason. The significance was determined using the unpaired Student's t test.

[6] = 24 h exposure to identical amounts of isotope

[^32P]ATP
inhibition of xenograft tumor growth (HeLa cell xenografts): significant inhibition

O=[32P](O)(O)O [[^32P]PO4, ^32P monophosphate]
cell death as monitored by the lack of cell growth [1]: far greater levels of cell death | survival rates at Day 5 relative to ^90Y ([2]; 2.5 μCi and 5 μCi doses, Day 5): barely half of those produced by ^90Y | cell killing efficiency compared with ^90Y [2, 6]: killed cells more efficiently than did ^90Y | survival rates at Day 5 relative to ^90Y (HeLa cells [3]; 2.5 μCi and 5 μCi doses, Day 5): barely half of those produced by ^90Y | cell killing efficiency compared with ^90Y (HeLa cells [3]; [6]): killed cells more efficiently than did ^90Y | double-strand DNA breakage (nuclear staining for phosphorylated H2AX) (HeLa cells [4]): significant, time-dependent double-strand DNA breakage | effects on the health of the mice (weight gain, overall activity levels) ([5]; single IV injection of 5 μCi): no apparent detrimental effects | inhibition of established syngeneic tumor growth [5]: significantly inhibited | inhibition of established syngeneic tumor growth ([5]; listed as 32P): strongly and effectively inhibited tumor growth | inhibition of xenograft tumor growth (HeLa cell xenografts): strongly and effectively inhibited tumor growth | detrimental effects (weight gain, general activity, overall health) (HeLa cell xenografts; xenografted nude mice): no apparent detrimental effects
